Key:
NCI = test: Growth inhibition of human NCI DTP 60 cells; format: functional
HOP-92 = test: Antiproliferative activity against human HOP92 cells after 48 hrs; format: functional
CCRF-CEM = test: Antiproliferative activity against human CCRF-CEM cells after 48 hrs; format: functional
HL-60 = test: Antiproliferative activity against human HL60 cells after 48 hrs; format: functional; details: for CC50: read-out: LC50 (the source's name)
LOX IMVI = test: Antiproliferative activity against human LOX IMVI cells after 48 hrs; format: functional
786-0 = test: Antiproliferative activity against human 786-0 cells after 48 hrs; format: functional; details: for CC50: read-out: LC50 (the source's name)
UO-31 = test: Antiproliferative activity against human UO31 cells after 48 hrs; format: functional
Plasmodium falciparum [1] = test: Antimalarial activity against Plasmodium falciparum W2; format: functional, organism-based
Plasmodium falciparum [2] = test: Antimalarial activity against Plasmodium falciparum D6; format: functional, organism-based
ACHN = test: Antiproliferative activity against human ACHN cells after 48 hrs; format: functional
CAKI-1 = test: Antiproliferative activity against human CAKI1 cells after 48 hrs; format: functional; details: CAKI-1, 48 h
Plasmodium falciparum [3] = test: Antimalarial activity against Plasmodium falciparum TM91C235; format: functional, organism-based
PC-3 = test: Antiproliferative activity against human PC3 cells after 48 hrs; format: functional; details: PC-3, 48 h
IGROV-1 = test: Antiproliferative activity against human IGROV1 cells after 48 hrs; format: functional; details: IGROV-1, 48 h
DU-145 = test: Antiproliferative activity against human DU145 cells after 48 hrs; format: functional; details: DU-145, 48 h
A549 = test: Antiproliferative activity against human A549 cells after 48 hrs; format: functional; details: A549, 48 h
Mus musculus [4] = test: Survival of Plasmodium berghei KBG 173 infected CD1 mice (Mus musculus) at 80 mg/kg/day; format: ADME, organism-based; details: in vivo
[5] = Metabolic stability in mouse liver microsomes; format: ADME, Microsome; details: microsomes
Mus musculus [6] = test: Survival of Plasmodium berghei KBG 173 infected CD1 mice (Mus musculus) at 320 mg/kg/day; format: ADME, organism-based; details: in vivo
MDA-MB-435 = test: Antiproliferative activity against human MDA-MB-435 cells after 48 hrs; format: functional
NCI-H23 = test: Antiproliferative activity against human NCI-H23 cells after 48 hrs; format: functional; details: NCI-H23, 48 h
Liver microsomes = test: Metabolic stability in human liver microsomes; format: ADME, Microsome; details: microsomes
SN12C = test: Antiproliferative activity against human SN12C cells after 48 hrs; format: functional
[7] = read-out: LC50 (the source's name)

SMILES: CC1CCC2(CC1)OOC1(CC[C@@]3(C)[C@H](CC[C@@H]4[C@@H]3C[C@H](O)[C@]3(C)[C@@H]([C@H](C)CCC(=O)NCCN(C)C)CC[C@@H]43)C1)OO2 (stereo in doubt; 16a)
- GI50 (NCI): 15 nM
- GI50 (HOP-92; Homo sapiens, HOP-92, 48 h): 228 nM
- LC50 (concentration killing 50% of cells) (HOP-92; Homo sapiens, HOP-92, 48 h): 973 nM
- TGI (HOP-92; Homo sapiens, HOP-92, 48 h): 471 nM
- LC50 (concentration killing 50% of cells) (CCRF-CEM): > 10000 nM
- GI50 (CCRF-CEM; Homo sapiens, CCRF-CEM, 48 h): 257 nM
- TGI (CCRF-CEM; Homo sapiens, CCRF-CEM, 48 h): 539 nM
- TGI (HL-60): 1010 nM
- GI50 (HL-60; Homo sapiens, HL-60, 48 h): 377 nM
- CC50 (HL-60): 6090 nM
- GI50 (LOX IMVI; Homo sapiens, LOX IMVI, 48 h): 184 nM
- LC50 (concentration killing 50% of cells) (LOX IMVI; Homo sapiens, LOX IMVI, 48 h): 774 nM
- TGI (LOX IMVI; Homo sapiens, LOX IMVI, 48 h): 378 nM
- GI50 (786-0; Homo sapiens, 786-0, 48 h): 626 nM
- TGI (786-0; Homo sapiens, 786-0, 48 h): 2040 nM
- CC50 (786-0; Homo sapiens, 786-0, 48 h): 5430 nM
- GI50 (UO-31; Homo sapiens, UO-31, 48 h): 206 nM
- LC50 (UO-31; Homo sapiens, UO-31, 48 h): 864 nM
- TGI (UO-31; Homo sapiens, UO-31, 48 h): 421 nM

SMILES: CC(=O)O[C@H]1C[C@H]2[C@@H](CC[C@@H]3CC4(CC[C@@]32C)OOC2(CCC(C)CC2)OO4)[C@@H]2CC[C@H]([C@H](C)CCC(=O)NCCN(C)C)[C@@]12C (stereo in doubt; 17)
- IC50 (Plasmodium falciparum [1]): 136 nM
- IC90 (Plasmodium falciparum [1]): 155 nM
- GI50 (NCI; Homo sapiens, NCI): < 5 nM
- IC50 (Plasmodium falciparum [2]): 104 nM
- IC90 (Plasmodium falciparum [2]): 148 nM
- GI50 (ACHN): 439 nM
- LC50 (concentration killing 50% of cells) (ACHN): 2300 nM
- TGI (ACHN): 1050 nM
- GI50 (CAKI-1): 602 nM
- TGI (CAKI-1): 1400 nM
- CC50 (CAKI-1; [7]): 3250 nM
- LC50 (concentration killing 50% of cells) (LOX IMVI): 56.4 nM
- TGI (LOX IMVI): 5.18 nM
- GI50 (786-0): 81.3 nM
- TGI (786-0): 149 nM
- IC50 (Plasmodium falciparum [3]): 136 nM
- IC90 (Plasmodium falciparum [3]): 153 nM

SMILES: CC1CCC2(CC1)OOC1(CC[C@@]3(C)[C@H](CC[C@@H]4[C@@H]3C[C@H](O)[C@]3(C)[C@@H]([C@H](C)CCC(=O)NCCN(C)C)CC[C@@H]43)C1)OO2 (stereo in doubt; 17a)
- GI50 (NCI): 130 nM
- GI50 (HOP-92): 171 nM
- LC50 (concentration killing 50% of cells) (HOP-92): 794 nM
- TGI (HOP-92): 368 nM
- GI50 (PC-3): 367 nM
- TGI (PC-3): 1620 nM
- CC50 (PC-3; [7]): 4450 nM
- GI50 (CCRF-CEM): 186 nM
- LC50 (concentration killing 50% of cells) (CCRF-CEM): 792 nM
- TGI (CCRF-CEM): 384 nM
- GI50 (HL-60): 264 nM
- TGI (HL-60): 477 nM
- CC50 (HL-60): 863 nM
- GI50 (IGROV-1): 160 nM
- LC50 (concentration killing 50% of cells) (IGROV-1): 712 nM
- TGI (IGROV-1): 338 nM
- GI50 (LOX IMVI): 180 nM
- LC50 (concentration killing 50% of cells) (LOX IMVI): 689 nM
- TGI (LOX IMVI): 352 nM
- GI50 (786-0): 335 nM
- TGI (786-0): 1050 nM
- CC50 (786-0): 3650 nM
- GI50 (UO-31): 165 nM
- LC50 (UO-31): 613 nM
- TGI (UO-31): 318 nM
- GI50 (DU-145): 641 nM
- LC50 (concentration killing 50% of cells) (DU-145): 4490 nM
- TGI (DU-145): 1910 nM

SMILES: CC(=O)O[C@H]1C[C@H]2[C@@H]([C@H](OC(C)=O)C[C@@H]3CC4(CC[C@@]32C)OOC2(CCC(C)CC2)OO4)[C@@H]2CC[C@H]([C@H](C)CCC(=O)Nc3ccccc3)[C@@]12C (stereo in doubt; 21)
- IC50 (Plasmodium falciparum [1]): 23.1 nM
- IC90 (Plasmodium falciparum [1]): 54.6 nM
- GI50 (NCI; Homo sapiens, NCI): 180 nM
- GI50 (HOP-92; Homo sapiens, HOP-92, 48 h): 266 nM
- LC50 (concentration killing 50% of cells) (HOP-92; Homo sapiens, HOP-92, 48 h): 8840 nM
- TGI (HOP-92; Homo sapiens, HOP-92, 48 h): 766 nM
- IC50 (Plasmodium falciparum [2]): 19.8 nM
- IC90 (Plasmodium falciparum [2]): 29.2 nM
- GI50 (A549): 255 nM
- TGI (A549): 664 nM
- GI50 (LOX IMVI): 181 nM
- LC50 (concentration killing 50% of cells) (LOX IMVI): 758 nM
- TGI (LOX IMVI): 370 nM
- GI50 (UO-31; Homo sapiens, UO-31, 48 h): 222 nM
- LC50 (UO-31; Homo sapiens, UO-31, 48 h): > 10000 nM
- TGI (UO-31; Homo sapiens, UO-31, 48 h): 487 nM
- IC50 (Plasmodium falciparum [3]): 27.2 nM
- IC90 (Plasmodium falciparum [3]): 69.7 nM

SMILES: CC(=O)O[C@H]1C[C@H]2[C@@H]([C@H](OC(C)=O)C[C@@H]3CC4(CC[C@@]32C)OOC2(CCC(C)CC2)OO4)[C@@H]2CC[C@H]([C@H](C)CCC(=O)NCCN(C)C)[C@@]12C (stereo in doubt; 23)
- IC50 (Plasmodium falciparum [1]): 43.5 nM
- IC90 (Plasmodium falciparum [1]): 94 nM
- GI50 (NCI): 57 nM
- Survival (Mus musculus [4]): 11 days
- GI50 (HOP-92; Homo sapiens, HOP-92, 48 h): 70 nM
- LC50 (concentration killing 50% of cells) (HOP-92; Homo sapiens, HOP-92, 48 h): 2860 nM
- TGI (HOP-92; Homo sapiens, HOP-92, 48 h): 695 nM
- GI50 (CCRF-CEM): 67 nM
- TGI (CCRF-CEM): 151 nM
- LC50 (concentration killing 50% of cells) (CCRF-CEM; Homo sapiens, CCRF-CEM, 48 h): 340 nM
- t1/2 [5]: > 2 h
- IC50 (Plasmodium falciparum [2]): 43.8 nM
- IC90 (Plasmodium falciparum [2]): 71.2 nM
- GI50 (ACHN): 592 nM
- LC50 (concentration killing 50% of cells) (ACHN): 2640 nM
- TGI (ACHN): 1250 nM
- Survival (Mus musculus [6]): 17 days
- GI50 (MDA-MB-435): 650 nM
- TGI (MDA-MB-435): 1340 nM
- CC50 (MDA-MB-435; [7]): 2780 nM
- GI50 (NCI-H23): 318 nM
- LC50 (concentration killing 50% of cells) (NCI-H23): 3110 nM
- TGI (NCI-H23): 1690 nM
- GI50 (LOX IMVI): 57 nM
- LC50 (concentration killing 50% of cells) (LOX IMVI; Homo sapiens, LOX IMVI, 48 h): 295 nM
- TGI (LOX IMVI; Homo sapiens, LOX IMVI, 48 h): 130 nM
- t1/2 (Liver microsomes): 2 h
- GI50 (SN12C): 606 nM
- LC50 (concentration killing 50% of cells) (SN12C): 2720 nM
- TGI (SN12C): 1280 nM
- IC50 (Plasmodium falciparum [3]): 39.2 nM
- IC90 (Plasmodium falciparum [3]): 102 nM
